The values below come from patent US12297190B2, “Modulators of STING (stimulator of interferon genes)” (PFIZER INC., priority 2019, dated 2025).

For one experiment, the target named is R232-STING (Homo sapiens, UniProt Q86WV6, H232R). Description: biochemical.
The target of experiment [1] is T1, STING (Homo sapiens, UniProt Q86WV6, G230A/H232R/R293Q/R71H).
T1 construct: host or cells: THP-1 and THP-1 Lucia ISG cells
Description: Interferon-β induction: THP-1 Lucia ISG reporter cell line. The note with it: THP-1 Lucia ISG cells, 24 hours incubation, luciferase reporter; read-out: THP-1 Lucia ISG Cells IFN-β EC50. It is filed as cell-based. The protocol: Interferon-β Induction: THP-1 ISG Reporter Cell Line
THP-1 Lucia™ ISG cells (InvivoGen) express the secreted luciferase “Lucia” reporter gene under the control of an IRF-inducible composite promotor comprised of five interferon response elements. THP-1 Lucia™ ISG cells were grown in RPMI media plus 2 mM L-glutamine, 10% fetal bovine serum, and 0.5% Pen-Strep. Hygromycin B and Zeocin were present to maintain stable transfection. 10^4 cells were seeded in 96-well plates and incubated overnight 37° C., 5% CO2. 50 μL of serial diluted compounds in media (final 0.5% DMSO) was and incubated for an additional 24 hours. After incubation, the plates were centrifuged at 2000 rpm for 10 min. 50 μl of cell culture supernatant of each well was transferred to a white, opaque 96-well plate. One pouch of QUANTI-Luc™ (InvivoGen) powder was prepared in 25 mL of endotoxin-free water and 100 μL of prepared warm QUANTI-Luc solution were added to each well containing the supernatant. The luminescence signal was measured using a Perkin-Elmer Envision microplate reader. Data were normalized to “% effect” with a positive control STING agonist that was known to maximize the luciferase signal and the negative control DMSO.

For experiment [2], the target named is T1, STING. Description: Phosphorylation of IRF3: THP-1 cell ELISA. The note with it: THP-1 cells, 3 hours incubation, phospho-IRF3 ELISA; read-out: THP-1 CELL P-IRF3 EC50. It is filed as cell-based. The protocol: Phosphorylation of IRF3: THP-1 Cell ELISA
STING activation results in recruitment of TBK1 and phosphorylation of IRF3 transcription factor before induction of type I interferons. THP-1 cells (InvivoGen) were grown in RPMI media plus 2 mM L-glutamine, 10% fetal bovine serum, and 0.5% Pen-Strep. 10^4 cells were seeded in 96-well plates and incubated overnight 37° C., 5% CO2. Compounds serial diluted compounds in media (final 0.5% DMSO) were added to the cells and incubated for an additional 3 hours. After incubation, the plates were centrifuged at 2000 rpm for 5 min. The cells were then lysed in 100 μl RIPA buffer and vortexed for 30 minutes at room temperature. 25 μl of lysate was then transferred to clear polystyrene High Bind plates that had been previously coated with mouse anti-human IRF-3 capture antibody (BD Pharmigen), and allowed to incubate at 4° C. for 16 hours. The plates were then washed and incubated with rabbit anti-phospho-IRF3 detection antibody (Cell Signaling Technologies) for 1.5 hours at room temperature. Finally, an HRP-linked secondary antibody (Cell Signaling Technologies) was added for 30 min before the Glo Substrate Reagent (R&D Systems) was used generate the luminescent signal. The signal was measured using a Perkin-Elmer Envision microplate reader. Data were normalized to “% effect” with a positive control STING agonist that was known to maximize the phosphorylated IRF3 signal and the negative control was DMSO.
In general terms: In an ELISA, binding on a coated surface is turned into a signal by an enzyme label.

Molecules are shown by their SMILES.

T1 sequence (Q86WV6 whole entry R71H/G230A/H232R/R293Q): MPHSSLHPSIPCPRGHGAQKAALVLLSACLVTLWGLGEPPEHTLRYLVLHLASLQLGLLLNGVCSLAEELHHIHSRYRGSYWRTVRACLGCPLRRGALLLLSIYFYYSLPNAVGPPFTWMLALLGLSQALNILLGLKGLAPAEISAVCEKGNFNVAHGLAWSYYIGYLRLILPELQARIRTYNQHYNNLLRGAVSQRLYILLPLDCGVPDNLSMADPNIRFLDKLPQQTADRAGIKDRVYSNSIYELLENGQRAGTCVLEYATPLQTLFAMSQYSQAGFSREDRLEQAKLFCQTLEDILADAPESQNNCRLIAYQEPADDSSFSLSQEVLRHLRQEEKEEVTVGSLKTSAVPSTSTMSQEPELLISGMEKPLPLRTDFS
R232-STING, sequence (Q86WV6 155-341 H232R): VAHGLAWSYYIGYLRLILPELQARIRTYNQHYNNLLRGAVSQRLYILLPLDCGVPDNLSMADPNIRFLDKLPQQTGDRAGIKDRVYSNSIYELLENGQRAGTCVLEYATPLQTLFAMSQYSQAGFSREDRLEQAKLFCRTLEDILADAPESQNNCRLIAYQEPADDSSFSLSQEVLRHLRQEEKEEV

In general, Ki refers to a dissociation constant, usually derived from enzyme kinetics or from competition with a known ligand. A higher Ki goes with a looser hold on the target. Usually EC50 stands for the concentration needed to bring the measured effect to its halfway point. As to `CCn1nc(C)cc1-c1nnc(-c2cc(C(N)=O)cc3c2cc(C(=O)O)n3C)[nH]1` [YY19, 6-carbamoyl-4-[5-(1-ethyl-3-methyl-1H-pyrazol-5-yl)-4H-1,2,4-triazol-3-yl]-1-methyl-1H-indole-2-carboxylic acid], the Ki at R232-STING came to 0.175 µM. Further, the EC50 at STING [1] and on STING [2] was above 100 µM each time.

On R232-STING, `CCn1nc(C)c(O)c1-c1nc(-c2nc(C(N)=O)cc3c2cnn3C)n(C)n1` [Example Q01, 4-[3-(1-ethyl-4-hydroxy-3-methyl-1H-pyrazol-5-yl)-1-methyl-1H-1,2,4-triazol-5-yl]-1-methyl-1H-pyrazolo[4,3-c]pyridine-6-carboxamide] displayed a Ki of 0.0032 µM. Further, the concentration for a half-maximal effect (EC50) on STING [1] was determined as 0.14 µM; at STING [2], 0.12 µM.

On R232-STING, `CCn1nc(C)cc1-c1nnc(-c2cc(C(N)=O)cc3c2cnn3CC[C@H](C)C2CCNCC2)[nH]1` (racemic) [YY18, 4-[5-(1-ethyl-3-methyl-1H-pyrazol-5-yl)-4H-1,2,4-triazol-3-yl]-1-[(3S)-3-(piperidin-4-yl)butyl]-1H-indazole-6-carboxamide] returned a Ki of 0.437 µM. The EC50 on STING [1] and on STING [2] was above 100 µM throughout.

`Cc1nn(CCCN)c(-c2n[nH]c(-c3nc(C(N)=O)cc4c3cnn4C)n2)c1O` [Example AH01, 4-{3-[1-(3-aminopropyl)-4-hydroxy-3-methyl-1H-pyrazol-5-yl]-1H-1,2,4-triazol-5-yl}-1-methyl-1H-pyrazolo[4,3-c]pyridine-6-carboxamide] came in with an inhibition constant Ki at R232-STING of 0.184 µM. In addition, the results for the EC50 on STING [1] and on STING [2] were 6.25 µM and above 11.1 µM, respectively.

Molecule `Cc1cc(-c2nc(-c3nc(C(N)=O)cc4c3cnn4C)c(CN)s2)n(CCCO)n1` [Example AF01, 4-{5-(aminomethyl)-2-[1-(3-hydroxypropyl)-3-methyl-1H-pyrazol-5-yl]-1,3-thiazol-4-yl}-1-methyl-1H-pyrazolo[4,3-c]pyridine-6-carboxamide] registered a Ki on R232-STING of 0.138 µM. The EC50 stood at 5.22 µM at STING [1] and 5.95 µM on STING [2].

Take `CCn1nc(C)cc1-c1nc(-c2cc(C(N)=O)cc3c2cnn3C)nn1COP(=O)(O)O` [Example N01, [3-(6-carbamoyl-1-methyl-1H-indazol-4-yl)-5-(1-ethyl-3-methyl-1H-pyrazol-5-yl)-1H-1,2,4-triazol-1-yl]methyl dihydrogenphosphate]: the EC50 is 76.9 µM at STING [1] and at least 100 µM on STING [2].

`CCn1nc(C)c(Cl)c1-c1nc(-c2nc(C(N)=O)cc3c2cnn3C)c(CN)s1` [YY35, 4-[5-(aminomethyl)-2-(4-chloro-1-ethyl-3-methyl-1H-pyrazol-5-yl)-1,3-thiazol-4-yl]-1-methyl-1H-pyrazolo[4,3-c]pyridine-6-carboxamide]: the Ki at R232-STING is 0.108 µM. The EC50 on STING [1] and on STING [2] was above 10 µM each time.

The molecule `CCn1nc(C)cc1-c1nnc(-c2cc(C(N)=O)cc3c2cnn3CCN2CCC(OC)CC2)[nH]1` [YY11, 4-[5-(1-ethyl-3-methyl-1H-pyrazol-5-yl)-4H-1,2,4-triazol-3-yl]-1-[2-(4-methoxypiperidin-1-yl)ethyl]-1H-indazole-6-carboxamide] gave a Ki at R232-STING of 0.529 µM. In addition, the EC50 at STING [1] and at STING [2] was above 100 µM each time.

At R232-STING, `CCn1nc(C)cc1-c1nc(-c2nc(C(N)=O)cc3c2cnn3C)n(C)n1` [Example J01, 4-[3-(1-ethyl-3-methyl-1H-pyrazol-5-yl)-1-methyl-1H-1,2,4-triazol-5-yl]-1-methyl-1H-pyrazolo[4,3-c]pyridine-6-carboxamide] yielded a Ki of 0.0142 µM. For the same molecule, the EC50 at STING [1] was found to be 0.51 µM; at STING [2], 0.53 µM.

On R232-STING, `CCn1nc(C)cc1-c1n[nH]c(-c2cc(C(N)=O)cc3c2cnn3CCN2C[C@H](C)OC[C@@H]2C)n1` [Example M04] displayed a Ki of 0.306 µM. The EC50 on STING [1] came to 28.6 µM; at STING [2], 28 µM.

As for `CCn1nc(C)cc1-c1nc(-c2nc(C(N)=O)cc3c2cnn3C)c(CN)o1` [Example T01, 4-[5-(aminomethyl)-2-(1-ethyl-3-methyl-1H-pyrazol-5-yl)-1,3-oxazol-4-yl]-1-methyl-1H-pyrazolo[4,3-c]pyridine-6-carboxamide], at R232-STING, the inhibition constant Ki amounted to 0.0277 µM. Further, the EC50 on STING [1] stood at 1.46 µM; on STING [2] it was 0.98 µM.

In the case of `CCn1nc(C)cc1-c1nnc(-c2c(C(F)F)c(C(N)=O)cc3c2cnn3C)[nH]1` [ZZZ011, 5-(difluoromethyl)-4-[5-(1-ethyl-3-methyl-1H-pyrazol-5-yl)-4H-1,2,4-triazol-3-yl]-1-methyl-1H-indazole-6-carboxamide], the Ki at R232-STING was above 0.27 µM.

As to `CCn1nc(C)cc1-c1nnc(-c2cc(C(N)=O)cc3c2cnn3CCCCN2CCOCC2)[nH]1` [ZZZ037, 4-[5-(1-ethyl-3-methyl-1H-pyrazol-5-yl)-4H-1,2,4-triazol-3-yl]-1-[4-(morpholin-4-yl)butyl]-1H-indazole-6-carboxamide], at R232-STING, the Ki came out at 0.727 µM. In other words, the sub-micromolar range.

On to `CCn1nc(C)cc1-c1nnc(-c2cc(C(N)=O)cc3c2cnn3CC23CCCN2CCC3)[nH]1` [ZZZ019, 4-[5-(1-ethyl-3-methyl-1H-pyrazol-5-yl)-4H-1,2,4-triazol-3-yl]-1-[(tetrahydro-1H-pyrrolizin-7a(5H)-yl)methyl]-1H-indazole-6-carboxamide], for which, at R232-STING, the Ki amounted to 0.726 µM.

`CCn1nc(C)cc1-c1nnc(-c2cc(C(N)=O)cc3c2cnn3CCCN2CCO[C@@H](C)C2)[nH]1` (racemic) [ZZZ029, 4-[5-(1-ethyl-3-methyl-1H-pyrazol-5-yl)-4H-1,2,4-triazol-3-yl]-1-{3-[(2S)-2-methylmorpholin-4-yl]propyl}-1H-indazole-6-carboxamide] came in with an inhibition constant (Ki) at R232-STING of 0.561 µM. The Ki values of the last two molecules are within 1.5-fold of each other.

On R232-STING, `CCn1nc(CO)cc1-c1n[nH]c(-c2nc(C(N)=O)cc3[nH]ncc23)n1` [ZZZ046, 4-{3-[1-ethyl-3-(hydroxymethyl)-1H-pyrazol-5-yl]-1H-1,2,4-triazol-5-yl}-1H-pyrazolo[4,3-c]pyridine-6-carboxamide] registered a Ki above 0.99 µM.

With `CCn1nc(C)cc1-c1nc(-c2nc(C(N)=O)cc3c2cnn3C)n(CCN)n1` [ZZZ047, 4-[1-(2-aminoethyl)-3-(1-ethyl-3-methyl-1H-pyrazol-5-yl)-1H-1,2,4-triazol-5-yl]-1-methyl-1H-pyrazolo[4,3-c]pyridine-6-carboxamide], the Ki at R232-STING is above 0.09 µM.

On to `CCn1nc(C)cc1-c1n[nH]c(-c2cc(C(N)=O)cc3c2cnn3CCN2C[C@@H]3C[C@H]2CO3)n1` [ZZZ113, 4-[3-(1-ethyl-3-methyl-1H-pyrazol-5-yl)-1H-1,2,4-triazol-5-yl]-1-{2-[(1S,4S)-2-oxa-5-azabicyclo[2.2.1]heptan-5-yl]ethyl}-1H-indazole-6-carboxamide], for which the Ki on R232-STING amounted to 0.731 µM.

`CCn1nc(C)cc1-c1n[nH]c(-c2cc(C(N)=O)cc3c2cnn3CCN2CCC3CC3C2)n1` (centres unmarked) [ZZZ095, 1-[2-(3-azabicyclo[4.1.0]heptan-3-yl)ethyl]-4-[3-(1-ethyl-3-methyl-1H-pyrazol-5-yl)-1H-1,2,4-triazol-5-yl]-1H-indazole-6-carboxamide] displayed a Ki on R232-STING of 0.773 µM.

As for `CCn1nc(C(=O)O)cc1-c1cnc(-c2cc(C(N)=O)cc3c2cnn3C)[nH]1` [ZZZ124, 5-[2-(6-carbamoyl-1-methyl-1H-indazol-4-yl)-1H-imidazol-5-yl]-1-ethyl-1H-pyrazole-3-carboxylic acid], the Ki at R232-STING is above 0.09 µM.
